In patent US8012492B2, “In vitro model of latent mycobacterial infection” (University of Central Florida Research Foundation, Inc., priority 2007, dated 2011):

Legend:
Mtb within TDM = type: cell-based, Mycobacterium tuberculosis
WT-H37Rv = type: cell-based, Mycobacterium tuberculosis

Row | Compound | Resistance of Mtb recovered from TDM to antibiotics (Mtb within TDM) | Rif resistant cells (WT-H37Rv) | Rif-resistance (WT-H37Rv) | Rif-resistant cells (WT-H37Rv) | Development of Rif resistance, share of the Mtb population (Mtb within TDM)
1 | NNC(=O)c1ccncc1 [INH] | showed resistance to both antibiotics |  |  |  | 
2 | CO[C@H]1/C=C/O[C@@]2(C)Oc3c(C)c(O)c4c(O)c(c(/C=N/N5CCN(C)CC5)c(O)c4c3C2=O)NC(=O)/C(C)=C\C=C\[C@H](C)[C@H](O)[C@@H](C)[C@@H](O)[C@@H](C)[C@H](OC(C)=O)[C@@H]1C [Rif, Rifampicin] |  | about 10% | up to 25% | about 0.03% | about 25%
